Each molecule was assayed against Hematopoietic prostaglandin D synthase (Homo sapiens, UniProt O60760) (assay: Inhibiting Action: The test was carried out according to the method of Urade, Y. et al. (J. Biol. Chem., 262, 3820-3825, (1987)). More specifically, the reaction mixture (49 μL) containing 100 mM Tris-HCl (pH 8.0), 1 mM reduced glutathione, 0.1 mg/mL γ-globulin, and human H-PGDS (q.s.), and a compound (final concentration: 0.01-100 μM) was preincubated at 25C. for 5 minutes. A DMSO solution (final concentration: 1%) was added to the solvent control group. Subsequently, 1 μL of [14C] prostaglandin H2 (final concentration: 10 μM) was added to start the reaction. One minute after the start of the reaction, 250 μL of a reaction stop solution (diethylether/methanol/1 M citric acid (30/4/1) at a temperature of −20C. was added to stop the reaction. After the reaction was stopped, 50 μL of the upper-layer portion (organic solvent layer) was applied to a TLC plate and developed at −20C. for 45 minutes (developing solvent: diethylether/methanol/acetic acid (90/2/1)).).
Sequence of Hematopoietic prostaglandin D synthase (O60760 whole entry): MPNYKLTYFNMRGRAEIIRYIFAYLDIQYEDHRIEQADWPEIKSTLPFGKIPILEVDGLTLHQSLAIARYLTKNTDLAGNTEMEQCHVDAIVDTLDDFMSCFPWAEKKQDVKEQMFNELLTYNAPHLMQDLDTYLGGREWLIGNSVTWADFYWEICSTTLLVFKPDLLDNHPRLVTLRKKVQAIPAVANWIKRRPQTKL
`Cn1ccnc1C(=O)N1CCN(C(=O)NC2CCN(c3ccc(C(=O)NCCN4CCOCC4)cc3)CC2)CC1` was tested, and the IC50 was greater than 1000 nM.
For `O=C(Nc1nc2ccc(Cl)cc2s1)N1CCN(C(=O)c2cccc(F)c2)CC1`, the IC50 was 204 nM.
Molecule `O=C(Nc1nc2ccc(Br)cc2s1)N1CCN(C(=O)c2cccc(F)c2)CC1` has an IC50 of 106 nM.
Work on `O=C(NCCN1CCOCC1)c1ccc(N2CCC(NC(=O)N3CCN(C(=O)c4ccsc4)CC3)CC2)cc1` yielded an IC50 of 327 nM.
For `O=C(NCCN1CCOCC1)c1ccc(N2CCC(NC(=O)N3CCN(C(=O)c4ccccc4)CC3)CC2)cc1`, the IC50 was 249 nM.
`O=C(NCCN1CCOCC1)c1ccc(N2CCC(NC(=O)N3CCN(C(=O)c4ccoc4)CC3)CC2)cc1` gave an IC50 greater than 1000 nM.
Molecule `Cc1ccc2nc(NC(=O)N3CCN(C(=O)c4cccc(F)c4)CC3)sc2c1` has an IC50 of 260 nM.
Work on `O=C(NCCN1CCOCC1)c1ccc(N2CCC(NC(=O)N3CCN(C(=O)C4CCCC4)CC3)CC2)cc1` yielded an IC50 greater than 1000 nM.
`Cn1ccc(C(=O)N2CCN(C(=O)NC3CCN(c4ccc(C(=O)NCCN5CCOCC5)cc4)CC3)CC2)c1` showed an IC50 greater than 1000 nM.
`O=C(NCCN1CCOCC1)c1ccc(N2CCC(NC(=O)N3CCN(C(=O)c4ccco4)CC3)CC2)cc1` gave an IC50 of 445 nM.
With `O=C(NCCN1CCOCC1)c1ccc(N2CCC(NC(=O)N3CCN(C(=O)c4cccs4)CC3)CC2)cc1` the IC50 was 201 nM.
`Cc1cc(C)c(C(=O)N2CCN(C(=O)NC3CCN(c4ccc(C(=O)NCCN5CCOCC5)cc4)CC3)CC2)[nH]1` showed an IC50 greater than 1000 nM.
In the case of `COc1ccc2nc(NC(=O)N3CCN(C(=O)c4cccc(F)c4)CC3)sc2c1`, the IC50 is reported as 318 nM.
In the case of `O=C(NCCN1CCOCC1)c1ccc(N2CCC(NC(=O)N3CCN(C(=O)c4ccno4)CC3)CC2)cc1`, the IC50 is reported as greater than 1000 nM.
In the case of `O=C(NCCN1CCOCC1)c1ccc(N2CCC(NC(=O)N3CCN(C(=O)c4ccc[nH]4)CC3)CC2)cc1`, the IC50 is reported as 334 nM.
Work on `Cc1cc2nc(NC(=O)N3CCN(C(=O)c4cccc(F)c4)CC3)sc2cc1C` yielded an IC50 of 222 nM.
